Measured values from EP1600153A1, “Slow-release pharmaceutical composition allowing to monitor drug release” (Deutsches Krebsforschungszentrum Stiftung des öffentlichen …, priority 2004, dated 2005).

Tests used:
[1] = Subcutaneous injection of FLAMP solution (control): 19F MRS in vivo at the site of injection; design: species or system rat
Method: Subcutaneous injection of 34 mcmol FLAMP, along with 0.5 mcmol Gd-DTPA, as a 1 ml-solution in an adult male rat, 19F MRS in vivo at the site of injection. Relative FLAMP signal (peak area of FLAMP / peak area of external NaF standard) versus time after injection.
(§1) A solution of the drug and the contrast agent was injected subcutaneously, followed by local MRS and MRI monitoring as in Example 2, in order to test whether either agent might be locally detectable even after release from the depot preparation. The injection volume (1 ml) and the amount of drug (FLAMP, 34 mcmoles) were the same as in Example 2 while the amount of contrast agent was doubled (Gd-DTPA, 0.5 mcmol).

[2] = course of plasma level corresponds to that after intravenous application; cited from earlier work
[3] = Subcutaneous liposome depot preparation in rats: amount of FLAMP at the site of injection by 19F-MRS in vivo; design: species or system Wistar rats
Method: 2 ml aqua bidest., 1,7 µl Magnevist™ and 200 mg Phospholipon™ 90H were added to a bottle for injection of Fludara™. The mixture was mixed by hand for 20 min. at room temperature. Then, the mixture was subjected to 6 cycles of vortexing for 2 min. and placing in a water bath at 64°C for 3 min.. Subsequently, the mixture was subjected to 6 cycles of holding in liquid nitrogen for 3 min. and placing in a water bath at 64°C for 6 min. Finally, the mixture was washed for four times with each of 10 ml phosphate buffer. After each washing step, the mixture was centrifuged for 15 min. at 10,000 x g. A colorless preparation having a consistency of a paste was obtained which was transferred to a syringe.
Adult male Wistar rats were bred in twos in isolators and received Altromin™ and water ad libitum. At day 1, in the morning rats were subcutaneously injected once with 1 ml of the pharmaceutical composition described in Example 1 into the right flank ("Luer"-canulla No.12 with screw thread). Injections and NMR-measurements were carried with rats which had been previously subjected to inhalation anesthesia (77% N2, 22% O2 and 1 - 1,2% Isofluran™) .
At day 1, in the morning (after the formulation had been injected) and in the afternoon, respectively, as well as at days 4, 13, 22, 29, 36 and 43 the following NMR-measurements were carried out: The amount of Fludarabin monophosphate (FLAMP) at the site of injection was determined by ^19F-MRS and the volume and the contrast intensity of the drug depot was measured by MRT.
A 1,5-T whole body tomograph(Magnetom Vision Plus, Siemens AG, Erlangen, Germany) was used for the NMR-measurements. For both, the ^19F-MRS and the ^1H-imaging a volume resonator which had been constructed by the DKFZ (resonance frequency: 63,6 MHz (^1H) , 59,9 MHz (^19F) with an inner diameter of 8.4 cm was used which served as transmitting- and receiving coil.
After the rats had been positioned (subcutaneous liposome depot in the middle of the resonator) the volume resonator was manually tuned to the ^1H resonance frequency. After "Shim" (optimization of field homogeneity) by use of the ^1H-tissue water resonance line and subsequent tuning of the coil to the ^19F resonance frequency the ^19F spectra were recorded. The reading sequence comprised a simple non-layer-specific pulsed excitation with subsequent recording of 1024 readings in 51.2 ms corresponding to the fast T2-decay of the FID. The recording period of TA = 33:21 min. resulted from a repetition time TR = 100 ms and a number of NEX = 20000 excitations.
In order to get a reference for the chemical shift and the signal intensity of FLAMP a 0.5 ml reference solution containing 400 mM NaF was applied to the middle of the underside of the volume resonator with the resonance of this solution being at about -40 ppm (with reference to TFA). The follow-up editing of the spectra was carried out by use of the software LUISE which is implemented to the tomograph. […] The relation of the integrals of the resonances of FLAMP to NaF served as a reference value for the individual readings. ^1H-imaging with high resolution was carried with a T1-weighted 3D-gradient-echo-method (3D-FLASH) with lipid saturation (parameters used for measurements: TR = 45 ms; TE = 11 ms; α = 30; FOV = 50 mm; matrix-size = 128 x 128; period of acquisition for the individual readings: 15,36 ms). Multiple transverse layer images of the liposome depots were recorded with layers having an actual thickness of 2, 1- and 0,4 mm, respectively. […]

[4] = Subcutaneous injection of Gd-DTPA solution (control): 1H MR imaging at the site of injection; format: in vivo, rat
Method: Subcutaneous injection of 0.5 mcmol Gd-DTPA (along with 34 mcmol FLAMP), as a 1 ml-solution in an adult male rat (left flank). Transversal 1H MR images (slice thickness 2 mm) from the region of the injection, taken 85 min after injection. Images numbered in caudal-cranial direction.
as §1

| 19F MRS signal from the drug at the site of injection ([1]; after 24 hours, s.c. solution, 34 mcmoles FLAMP) | disappearance of MRS signals from the drug itself or indistinguishable metabolites ([1]; drug injected as a solution) | drop of 19F MRS signal from the drug ([1]; within 5 hours after s.c. injection of solution, 34 mcmoles FLAMP) | drug amounts injected still present at the site of injection ([3]; day 13 post injection, s.c. 1 ml liposome depot (Phospholipon, Fludara, Magnevist), 19F-NMR-spectroscopy) | drug amounts injected still present at the site of injection ([3]; end of the experiment (day 43, six weeks), s.c. liposome depot) | amounts of drug available for release, of the amounts initially injected ([3]; end of the period, about six weeks after subcutaneous injection of depot) | time at which amount of FLAMP at the site of injection started to decrease continuously ([3]; s.c. liposome depot, 19F-MRS) | amounts of drug available for release, of the amounts initially injected ([3]; start of the period, about one week after subcutaneous injection of depot) | Compound | 19F MRS signal from the drug at the site of injection ([1]; 8 min after s.c. injection of solution, 34 mcmoles FLAMP in 1 ml) | absorption after subcutaneous application [2] | contrast enhancement at the site of injection (1H-images, 24 adjacent 2 mm layers) ([4]; 85 min after s.c. injection of solution, 0.5 mcmol Gd-DTPA) | area of remaining contrast enhancement ([4]; 85 min after s.c. injection of solution, 0.5 mcmol Gd-DTPA, three adjacent layers) | contrast enhancement left at the site of administration ([4]; one and a half hours after subcutaneous injection of Gd-DTPA solution) |
| --- | --- | --- | --- | --- | --- | --- | --- | --- | --- | --- | --- | --- | --- |
| no longer detectable | disappear within a few hours | more than 90 | 70% | 10% | 12% | About one week after injection | 70% | Nc1nc(F)nc2c1ncn2[C@@H]1O[C@H](COP(=O)(O)O)[C@@H](O)[C@@H]1O [FLAMP, Fludarabin-5'-monophosphate] | about the same as on day 1 after injecting the depot preparation | immediately absorbed | – | – | – |
| – | – | – | – | – | – | – | – | gadolinium-DPTA [Gd-DTPA] | – | – | only a faint diffuse contrast enhancement was detectable in three adjacent layers | about 212 mm | Almost no contrast enhancement was left |
